# In PubChem BioAssay (NCI):
#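 How tested: cells in 96-well plates exposed to compound for 48 hours at five concentrations. Here, GI50 denotes the concentration required for 50% inhibition of growth. At the TGI there is no net growth.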
# How the values were obtained:
# Assay in all cases: DTP human tumour cell line panel, 48 h
# [1] = tested on: UO-31 renal
# [2] = tested on: A549 NSCLC
# [3] = tested on: HL-60(TB) leukemia
# [4] = tested on: IGROV1 ovarian
# [5] = tested on: RXF 393 renal
# [6] = tested on: UACC-257 melanoma
# [7] = tested on: TK-10 renal
# [8] = tested on: NCI-H460 lung
# [9] = tested on: SNB-75 CNS
# [10] = tested on: NCI-H226 lung
# [11] = tested on: MALME-3M melanoma
# [12] = tested on: COLO 205 colon
# [13] = tested on: MDA-MB-231 breast
# [14] = tested on: A498 renal
# [15] = tested on: HT29 colon
# [16] = tested on: NCI/ADR-RES ovarian
# [17] = tested on: SN12C renal
# [18] = tested on: RPMI-8226 leukemia
# [19] = tested on: MOLT-4 leukemia
# [20] = tested on: HOP-62 NSCLC
# [21] = tested on: KM12 colon
# [22] = tested on: SK-OV-3 ovarian
# [23] = tested on: SW-620 colon
# [24] = tested on: OVCAR-8 ovarian
# [25] = tested on: LOX IMVI melanoma
# [26] = tested on: DU-145 prostate
# [27] = tested on: SF-539 CNS
# [28] = tested on: M14 melanoma
# [29] = tested on: U251 CNS
# [30] = tested on: HCT-116 colon
# [31] = tested on: OVCAR-5 ovarian
# [32] = tested on: HCT-15 colon
# [33] = tested on: SF-268 CNS
# [34] = tested on: CCRF-CEM leukemia
# [35] = tested on: NCI-H522 lung
# [36] = tested on: SK-MEL-28 melanoma
# [37] = tested on: SK-MEL-5 melanoma
# [38] = tested on: OVCAR-4 ovarian
# [39] = tested on: CAKI-1 renal
# [40] = tested on: SNB-19 CNS
# [41] = tested on: SF-295 CNS
# [42] = tested on: MDA-MB-435
# [43] = tested on: SK-MEL-2 melanoma
# [44] = tested on: ACHN renal
# [45] = tested on: BT-549 breast
# [46] = tested on: 786-0 renal
# [47] = tested on: HS 578T breast
# [48] = tested on: MCF7 breast
# [49] = tested on: T-47D breast
# [50] = tested on: HOP-92 NSCLC
# [51] = tested on: SR leukemia
# [52] = tested on: K-562 leukemia
# [53] = tested on: OVCAR-3 ovarian
# [54] = tested on: HCC-2998 colon
# [55] = tested on: NCI-H23 lung
# [56] = tested on: PC-3 prostate
# [57] = tested on: UACC-62 melanoma
smiles,measurement,setting,value
CC#Cc1nc2ccccc2c(=O)[nH]1,GI50,[1],3.18 µM
same,TGI,[1],8.87 µM
same,GI50,[2],4.9 µM
same,TGI,[2],34.2 µM
same,GI50,[3],3.11 µM
same,TGI,[3],9.62 µM
same,GI50,[4],2.51 µM
same,TGI,[4],6.97 µM
same,GI50,[5],1.57 µM
same,TGI,[5],3.27 µM
same,GI50,[6],3.4 µM
same,TGI,[6],15.4 µM
same,GI50,[7],5.06 µM
same,TGI,[7],26.3 µM
same,GI50,[8],3.89 µM
same,TGI,[8],20.2 µM
same,GI50,[9],2.09 µM
same,TGI,[9],6.43 µM
same,GI50,[10],2.3 µM
same,TGI,[10],5.84 µM
same,GI50,[11],4.21 µM
same,TGI,[11],15 µM
same,GI50,[12],2.03 µM
same,TGI,[12],3.7 µM
same,GI50,[13],2.1 µM
same,TGI,[13],4.71 µM
same,GI50,[14],1.38 µM
same,TGI,[14],2.74 µM
same,GI50,[15],3.79 µM
same,TGI,[15],13.9 µM
same,GI50,[16],3.89 µM
same,TGI,[16],63.9 µM
same,GI50,[17],3.02 µM
same,TGI,[17],9.8 µM
same,GI50,[18],1.52 µM
same,TGI,[18],5.73 µM
same,GI50,[19],2.9 µM
same,TGI,[19],8.51 µM
same,GI50,[20],3.18 µM
same,TGI,[20],9.43 µM
same,GI50,[21],2.68 µM
same,TGI,[21],6.58 µM
same,GI50,[22],41.7 µM
same,TGI,[22],> 100 µM
same,GI50,[23],3.7 µM
same,TGI,[23],23 µM
same,GI50,[24],4.89 µM
same,TGI,[24],64.9 µM
same,GI50,[25],1.82 µM
same,TGI,[25],3.43 µM
same,GI50,[26],4.88 µM
same,TGI,[26],> 100 µM
same,GI50,[27],2.76 µM
same,TGI,[27],9.14 µM
same,GI50,[28],3.28 µM
same,TGI,[28],9.71 µM
same,GI50,[29],3.42 µM
same,TGI,[29],12.8 µM
same,GI50,[30],3.24 µM
same,TGI,[30],13 µM
same,GI50,[31],6.1 µM
same,TGI,[31],27.1 µM
same,GI50,[32],2.73 µM
same,TGI,[32],8.91 µM
same,GI50,[33],3.17 µM
same,TGI,[33],11.1 µM
same,GI50,[34],2.62 µM
same,TGI,[34],25.4 µM
same,GI50,[35],5.27 µM
same,TGI,[35],16.7 µM
same,GI50,[36],4.55 µM
same,TGI,[36],33.9 µM
same,GI50,[37],1.65 µM
same,TGI,[37],3.32 µM
same,GI50,[38],4.15 µM
same,TGI,[38],27.5 µM
same,GI50,[39],6.15 µM
same,TGI,[39],28.3 µM
same,GI50,[40],13.3 µM
same,TGI,[40],52.3 µM
same,GI50,[41],4.1 µM
same,TGI,[41],20.6 µM
same,GI50,[42],2.04 µM
same,TGI,[42],5.35 µM
same,GI50,[43],3.2 µM
same,TGI,[43],7.21 µM
same,GI50,[44],3.65 µM
same,TGI,[44],23.3 µM
same,GI50,[45],2.34 µM
same,TGI,[45],5.18 µM
same,GI50,[46],4.23 µM
same,TGI,[46],14.7 µM
same,GI50,[47],4.92 µM
same,TGI,[47],> 100 µM
same,GI50,[48],3.07 µM
same,TGI,[48],> 100 µM
same,GI50,[49],5.71 µM
same,TGI,[49],23 µM
same,GI50,[50],2.3 µM
same,TGI,[50],7.74 µM
same,GI50,[51],2.38 µM
same,TGI,[51],19 µM
same,GI50,[52],3.93 µM
same,TGI,[52],> 100 µM
same,GI50,[53],2.11 µM
same,TGI,[53],4.16 µM
same,GI50,[54],1.99 µM
same,TGI,[54],4.17 µM
COc1cc(Nc2cc(C)nc(N3CCN(c4ccnc5cc(Cl)ccc45)CC3)n2)cc(OC)c1,GI50,[1],0.139 µM
same,TGI,[1],> 100 µM
same,GI50,[2],0.227 µM
same,TGI,[2],> 39.7 µM
same,GI50,[3],0.24 µM
same,TGI,[3],20.8 µM
same,GI50,[4],0.267 µM
same,TGI,[4],> 100 µM
same,GI50,[5],0.0354 µM
same,TGI,[5],0.286 µM
same,GI50,[6],0.907 µM
same,TGI,[6],> 100 µM
same,GI50,[7],0.538 µM
same,TGI,[7],41.3 µM
same,GI50,[8],0.18 µM
same,TGI,[8],> 32.3 µM
same,GI50,[9],0.142 µM
same,TGI,[9],1.06 µM
same,GI50,[55],0.302 µM
same,TGI,[55],> 100 µM
same,GI50,[10],0.362 µM
same,GI50,[11],5.08 µM
same,TGI,[11],> 100 µM
same,GI50,[12],0.202 µM
same,TGI,[12],0.537 µM
same,GI50,[14],0.0842 µM
same,TGI,[14],0.658 µM
same,GI50,[15],0.266 µM
same,TGI,[15],2.08 µM
same,GI50,[16],0.155 µM
same,TGI,[16],1.24 µM
same,GI50,[17],0.309 µM
same,TGI,[17],> 100 µM
same,GI50,[18],0.313 µM
same,TGI,[18],3.51 µM
same,GI50,[19],0.4 µM
same,TGI,[19],> 40.9 µM
same,GI50,[20],0.194 µM
same,TGI,[20],14.3 µM
same,GI50,[21],0.0323 µM
same,TGI,[21],4.73 µM
same,GI50,[22],0.253 µM
same,TGI,[22],> 78.9 µM
same,GI50,[23],0.146 µM
same,TGI,[23],> 100 µM
same,GI50,[24],0.337 µM
same,TGI,[24],> 79.1 µM
same,GI50,[25],0.133 µM
same,TGI,[25],2.82 µM
same,GI50,[26],0.318 µM
same,GI50,[29],0.268 µM
same,TGI,[29],> 100 µM
same,GI50,[30],0.103 µM
same,TGI,[30],5.45 µM
same,GI50,[31],0.487 µM
same,TGI,[31],> 100 µM
same,GI50,[32],0.0561 µM
same,TGI,[32],> 100 µM
same,GI50,[33],0.377 µM
same,TGI,[33],> 100 µM
same,GI50,[34],0.268 µM
same,TGI,[34],> 100 µM
same,GI50,[35],0.0501 µM
same,TGI,[35],0.651 µM
same,GI50,[36],0.0993 µM
same,TGI,[36],> 100 µM
same,GI50,[37],0.0778 µM
same,TGI,[37],0.351 µM
same,GI50,[38],0.128 µM
same,TGI,[38],> 100 µM
same,GI50,[39],0.198 µM
same,TGI,[39],> 100 µM
same,GI50,[56],0.245 µM
same,TGI,[56],> 100 µM
same,GI50,[40],0.318 µM
same,TGI,[40],> 100 µM
same,GI50,[41],0.0496 µM
same,TGI,[41],0.439 µM
same,GI50,[42],0.0306 µM
same,TGI,[42],0.105 µM
same,GI50,[43],0.186 µM
same,TGI,[43],> 100 µM
same,GI50,[44],0.0727 µM
same,TGI,[44],> 100 µM
same,GI50,[57],0.0955 µM
same,TGI,[57],> 71.7 µM
same,GI50,[45],0.498 µM
same,TGI,[45],6.61 µM
same,GI50,[46],0.153 µM
same,TGI,[46],5.82 µM
same,GI50,[47],0.176 µM
same,TGI,[47],> 100 µM
same,GI50,[48],0.0324 µM
same,TGI,[48],> 100 µM
same,GI50,[49],2.36 µM
same,TGI,[49],> 100 µM
same,GI50,[50],0.0973 µM
same,TGI,[50],4.68 µM
same,GI50,[51],0.169 µM
same,TGI,[51],3.3 µM
same,GI50,[52],0.108 µM
same,TGI,[52],> 61.9 µM
same,GI50,[53],0.0662 µM
same,TGI,[53],0.437 µM
same,GI50,[54],0.222 µM
same,TGI,[54],4.22 µM
